Experimental data: patent publication US12295970B2, “Imidazoquinoline compounds and prodrugs thereof” (UNIVERSITY OF KANSAS, priority 2019, dated 2025)

What was measured:
[1] = system: canine PBMCs; assay: In vitro cytokine secretion assay in canine PBMCs (Example 3); assay type: cell-based; settings: 15 hours, ELISA
Excerpt: As a TLR7/8 agonist, R848 binds to endosomal TLR7 and 8 receptors located on antigen presenting cells (APCs). The activation of APCs produces pro-inflammatory cytokines including TNF-α, type I IFN and IL-12. These cytokines, together with stimulated APCs that take up tumor antigens, enhance the activation of anti-tumor Th-1 immune responses that involve both CD4^+ T helper cells and CD8^+ cytotoxic T cells.^16 To evaluate the Th-1 associated cytokine production in vitro, isolated canine PBMCs were treated with R848, formulated or unformulated R848-Toco, and the secretion of TNF-α and IL-12 were measured by ELISA as markers of generalized inflammatory response. Canines were chosen as a model over mice because of the greater genetic similarity to humans and more similar immune systems.^46 Peripheral blood from healthy canine donors of 7-10 years age (similar to the age of typical canines with cancer^14) was obtained with appropriate informed consent of the owner. Blood (8 mL per tube) was drawn via sterile venipuncture into a BD Vacutainer cell preparation tube containing sodium heparin (BD Biosciences). PBMCs were isolated within one hour following procurement by density gradient centrifugation according to the manufacturer protocol and resuspended to 3×10^6 cells/mL in sterile RPMI 1640 medium with L-glutamine (Gibco) supplemented with 100 IU/mL penicillin, 100 μg/mL streptomycin (Corning) and 10% (v/v) heat-inactivated Fetalgro (RMBIO). Corning 3917, 96-well tissue culture treated plates were seeded with the PBMC suspension (180 μL/well), 20 μL of the serially diluted R848 samples were added in triplicate and HA-Toco vehicle in duplicate to yield the desired concentrations in a 1% (v/v) DMSO cell suspension. […] Sample cytokine concentrations were determined by interpolation of a four-parameter logistic curve of the recombinant standards using GraphPad Prism 6. […] Cytokine secretion levels were measured by ELISA (Duoset, R&D Systems, Minneapolis, MN, USA) according to the manufacturer protocol.

[2] = target: T1, hTLR7 (Homo sapiens, UniProt Q9NYK1); assay: SEAP reporter assay for hTLR-7 activity (HEK-Blue hTLR7 cells); assay type: cell-based
T1 construct: host or cells: HEK293 (HEK-Blue hTLR7)
T1 sequence (Q9NYK1 27-1049): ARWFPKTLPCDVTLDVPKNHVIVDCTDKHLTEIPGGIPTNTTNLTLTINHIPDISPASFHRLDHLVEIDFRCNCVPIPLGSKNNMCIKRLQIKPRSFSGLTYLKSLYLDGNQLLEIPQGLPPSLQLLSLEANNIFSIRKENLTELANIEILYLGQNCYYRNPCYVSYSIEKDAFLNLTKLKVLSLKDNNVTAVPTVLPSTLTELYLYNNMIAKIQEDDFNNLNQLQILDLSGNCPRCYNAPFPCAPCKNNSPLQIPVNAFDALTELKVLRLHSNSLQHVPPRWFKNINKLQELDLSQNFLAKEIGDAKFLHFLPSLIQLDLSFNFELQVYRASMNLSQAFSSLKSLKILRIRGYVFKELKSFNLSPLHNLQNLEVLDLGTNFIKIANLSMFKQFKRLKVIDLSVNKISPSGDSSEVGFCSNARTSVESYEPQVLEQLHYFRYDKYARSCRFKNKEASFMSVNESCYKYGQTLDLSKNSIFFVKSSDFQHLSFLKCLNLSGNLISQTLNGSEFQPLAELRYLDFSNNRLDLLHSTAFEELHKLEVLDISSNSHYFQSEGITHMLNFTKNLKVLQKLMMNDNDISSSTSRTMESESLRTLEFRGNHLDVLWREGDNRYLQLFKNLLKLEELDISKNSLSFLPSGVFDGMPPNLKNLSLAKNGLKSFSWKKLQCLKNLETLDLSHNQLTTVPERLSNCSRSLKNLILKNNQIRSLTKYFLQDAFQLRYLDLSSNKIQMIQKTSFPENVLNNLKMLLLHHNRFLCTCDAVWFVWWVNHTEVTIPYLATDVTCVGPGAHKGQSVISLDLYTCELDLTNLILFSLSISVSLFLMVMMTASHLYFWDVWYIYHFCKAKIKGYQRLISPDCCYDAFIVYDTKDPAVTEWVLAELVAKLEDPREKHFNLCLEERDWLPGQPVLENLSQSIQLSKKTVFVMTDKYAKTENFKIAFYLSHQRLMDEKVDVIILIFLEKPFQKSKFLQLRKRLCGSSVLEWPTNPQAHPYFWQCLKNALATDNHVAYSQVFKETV
Experimental: TLR activation induces NF-κB production and subsequent SEAP secretion, which is measured using HEK-Detection media (InvivoGen) containing a colorimetric substrate for SEAP (UV-Vis, 637 nm).
The experiments followed manufacturer protocol as follows: SEAP levels were measured via absorbance at 637 nm using HEK-Blue Detection cell culture medium (InvivoGen), which contains a SEAP-specific colorimetric substrate. Compound stock solutions were first diluted in sterile DMSO at a concentration of 10 mM. Lower concentrations were prepared by serial dilution of the initial 10 mM stock samples into sterile DMSO and these solutions (22 μL) were subsequently diluted into sterile H2O (198 μL) using a BioTek Precision XS pipetting system. HEK-Blue hTLR7, HEK-Blue hTLR8, Null 1−k, and Null 1 cell suspensions in sterile HEK-Blue Detection medium were prepared at a density of 220,000 cells per mL. Clear bottom, 96-well tissue culture treated plates (Corning) were seeded with hTLR7 and Null 1−k or hTLR8 and Null 1 cell suspensions (180 μL/well), after which 20 μL of the various sample concentrations in 10% v/v DMSO/H2O were added (20 μL) in quadruplicate wells to yield the desired testing concentration in 1% v/v DMSO cell suspension. Plates were incubated at 37° C. and 5% CO2 in the dark. Absorbance measurements were taken at 637 nm at 12 hours, 4 replicates per concentration point, per cell line (hTLR7, hTLR8, Null 1−k, Null 1). Three independent measurements on different days were performed for each analog.
Corresponding well absorbance values for each concentration tested were averaged with respect to days tested, and the average relative NF-κB induction (UV-Vis, 637 nm) of the null cell lines (Null 1-k or Null 1) were subtracted from the respective average TLR expressing cell line (hTLR7 or hTLR8) absorbance averages. […] The three independent, normalized averages for each analog were then pooled, and the data was fit using the Hill-Slope model (GraphPad Prism v7.0) using the non-linear fit from the [Agonist] vs. response—Variable Slope (four parameters) with a hill slope constrained to less than 3.

CCOCc1nc2c(N)nc3ccccc3c2n1CC(C)(C)O [Compound 2, resiquimod, reference compound]
IL-12 levels [1]: highest
secretion of TNF-α [1]: strong secretion
agonist for TLR7 receptor (in words) [2]: agonists
